Data from US20250257075A1, “MACROCYCLIC INHIBITORS OF KRAS FOR THE TREATMENT OF CANCER” (Hoffmann-La Roche Inc., priority 2022, published 2025).

Key:
[1] = tested on: NCI-H358 cells (KRAS G12C); assay: Cell viability assay, G12C; type: cell-based, human; settings: NCI-H358, 72 hrs, Cell Counting Kit-8
Procedure, shortened: (§1)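 After overnight attachment, cells received compounds (0.5% DMSO) for 72 hrs; viability was then quantified with CCK-8, reading OD450 minus OD650, and IC50 values were obtained from a 4-parameter concentration-response fit.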

[2] = molecular target: KRAS G12V binding to BRAF (Homo sapiens, UniProt P01116+P62937, G12V); assay: KRAS-BRAF with CYPA (500 nM) interaction assay (TR-FRET), G12V; type: biochemical; settings: 3 hours
Description: (§2) Kras-BRAF with CYPA (500 nM) Interaction Assay In this example, TR-FRET was also used to measure the compound or compound-CYPA dependent disruption of the KRAS G12C-BRAF complex. This protocol was also used to measure disruption of KRAS G12D or KRAS G12V binding to BRAF by a compound of the invention, respectively. […] TR-FRET signal was read on a […] microplate reader (Ex320 nm, Em 665/615 nm). Compounds that facilitate disruption of the KRAS-BRAF complex were identified as those eliciting a decrease in the TR-FRET ratio relative to DMSO control wells.

AGS cells (KRAS G12D) = assay: Cell viability assay, G12D; type: cell-based, human; settings: 72 hrs, Cell Counting Kit-8
Procedure, shortened: as §1

[3] = tested on: phosphorylation of ERK, KRAS G12C in NCI-H358 cells; assay: pERK inhibition assay, G12C; type: cell-based, human; settings: NCI-H358, 4 hours of incubation
Procedure, shortened: (§3)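 NCI-H358 (G12C), AGS (G12D) and SW620 (G12V) cells were seeded overnight at 30,000, 20,000 and 30,000 cells/well, respectively. They were then treated 4 h with compound (0.5% DMSO final), fixed, and methanol-permeabilized. pERK was detected by in-cell ELISA (anti-pERK/HRP, TMB, OD450); IC50 from a 4-parameter sigmoidal fit.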

[4] = tested on: phosphorylation of ERK, KRAS G12D in AGS cells; assay: pERK inhibition assay, G12D; type: cell-based, human; settings: 4 hours of incubation
Procedure, shortened: as §3

SW620 cells (KRAS G12V) = assay: Cell viability assay, G12V; type: cell-based, human; settings: SW620, 72 hrs, Cell Counting Kit-8
Procedure, shortened: as §1

KRAS G12C-BRAF complex [5] = molecular target: T1, KRAS G12C-BRAF complex (Homo sapiens, UniProt P01116+P62937, G12C); assay: KRAS-BRAF with CYPA (500 nM) interaction assay (TR-FRET), G12C; type: biochemical; settings: 3 hours
T1 construct: expressed in transfected cells
Description: as §2

[6] = tested on: phosphorylation of ERK, KRAS G12V in SW620; assay: pERK inhibition assay, G12V; type: cell-based, human; settings: SW620, 4 hours of incubation
Procedure, shortened: as §3

KRAS G12C-BRAF complex [7] = molecular target: T1, KRAS G12C-BRAF complex; assay: KRAS G12C-BRAF NanoBit assay in HEK293 cells; type: cell-based; settings: HEK293 stable cell pool, 3 hours of incubation
Procedure, shortened: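 HEK293 stable pool co-expressing SmBiT-KRAS G12C and BRAF RBD-LgBiT, exposed 3 h to compounds (16-point 3-fold dilution, top final 30 μM). Luminescence was read 20 min after Nano-Glo Live Cell substrate addition. A decrease versus DMSO control indicates disruption of the complex.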

[8] = molecular target: KRAS G12D binding to BRAF (Homo sapiens, UniProt P01116+P62937, G12D); assay: KRAS-BRAF with CYPA (500 nM) interaction assay (TR-FRET), G12D; type: biochemical; settings: 3 hours
Description: as §2

Chain of KRAS G12V binding to BRAF (P01116 1-188 isoform P01116-2 G12V): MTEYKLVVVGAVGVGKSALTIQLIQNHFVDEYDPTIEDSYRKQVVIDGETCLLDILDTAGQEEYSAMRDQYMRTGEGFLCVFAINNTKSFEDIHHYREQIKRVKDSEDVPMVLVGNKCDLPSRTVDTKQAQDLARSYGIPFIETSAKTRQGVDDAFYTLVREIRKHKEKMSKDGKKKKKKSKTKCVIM
Chain of KRAS G12V binding to BRAF (P62937 whole entry): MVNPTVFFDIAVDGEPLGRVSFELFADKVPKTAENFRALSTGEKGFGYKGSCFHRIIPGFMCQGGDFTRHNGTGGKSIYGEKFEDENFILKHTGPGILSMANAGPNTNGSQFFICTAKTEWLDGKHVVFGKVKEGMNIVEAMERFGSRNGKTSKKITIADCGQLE
T1 sequence (P01116 1-188 isoform P01116-2 G12C): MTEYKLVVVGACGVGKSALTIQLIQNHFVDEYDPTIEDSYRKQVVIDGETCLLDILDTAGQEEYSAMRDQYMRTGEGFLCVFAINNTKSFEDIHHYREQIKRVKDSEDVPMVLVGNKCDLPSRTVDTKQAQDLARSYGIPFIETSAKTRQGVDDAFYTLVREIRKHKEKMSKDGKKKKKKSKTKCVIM
T1 sequence (P62937 whole entry): as the sequence (P62937 whole entry) above
Chain of KRAS G12D binding to BRAF (P01116 1-188 isoform P01116-2 G12D): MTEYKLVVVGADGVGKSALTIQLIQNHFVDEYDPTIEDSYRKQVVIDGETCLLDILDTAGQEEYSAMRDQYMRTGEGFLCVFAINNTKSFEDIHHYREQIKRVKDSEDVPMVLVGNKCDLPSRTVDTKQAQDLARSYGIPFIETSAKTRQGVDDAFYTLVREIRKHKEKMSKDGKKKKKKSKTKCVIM
Chain of KRAS G12D binding to BRAF (P62937 whole entry): as the sequence (P62937 whole entry) above

Row | IC50 [1] | IC50 [2] | IC50 (AGS cells (KRAS G12D)) | IC50 [3] | IC50 [4] | IC50 (SW620 cells (KRAS G12V)) | IC50 (KRAS G12C-BRAF complex [5]) | IC50 [6] | IC50 (KRAS G12C-BRAF complex [7]) | IC50 [8] | IC50 ([1]; Homo sapiens) | IC50 (AGS cells (KRAS G12D); Homo sapiens) | IC50 ([3]; Homo sapiens) | IC50 ([4]; Homo sapiens) | IC50 (SW620 cells (KRAS G12V); Homo sapiens, SW-620) | IC50 ([6]; Homo sapiens, SW-620) | Compound
1 | 0.007 µM | 1.1 µM | 0.536 µM | 0.058 µM | 0.145 µM | 0.23 µM | 0.128 µM | < 0.001 µM | 0.106 µM | 9.95 µM | – | – | – | – | – | – | CO[C@@H](C)c1ncc(N2CCN(C)CC2)cc1-c1c2c3cc(c(F)cc3n1CC(F)(F)F)-c1csc(n1)C[C@H](NC(=O)[C@H](C(C)C)N(C)C(=O)[C@H]1C[C@@H](C#Cc3ncccn3)C1)C(=O)N1CCC[C@H](N1)C(=O)OCC(C)(C)C2 (relative stereo) [Example 5, cis-N-[(1S)-1-[[(7S,13S)-24-fluoro-(20M)-20-[2-[(1S)-1-methoxyethyl]-5-(4-methylpiperazin-1-yl)-3-pyridyl]-17,17-dimethyl-8,14-dioxo-21-(2,2,2-trifluoroethyl)-15-oxa-4-thia-9,21,27,28-tetrazapentacyclo[17.5.2.1^2,5.1^9,13.0^22,26]octacosa-1(25),2,5(28),19,22(26),23-hexaen-7-yl]carbamoyl]-2-methyl-propyl]-N-methyl-3-(2-pyrimidin-2-ylethynyl)cyclobutanecarboxamide]
2 | – | 0.484 µM | – | – | – | – | 0.063 µM | – | 0.067 µM | 1.47 µM | 0.033 µM | 3.1 µM | 0.092 µM | 0.667 µM | 0.36 µM | 0.201 µM | CO[C@@H](C)c1ncc(N2CCN(C)CC2)cc1-c1c2c3c(F)c(ccc3n1CC(F)(F)F)-c1csc(n1)C[C@H](NC(=O)[C@H](C(C)C)N(C)C(=O)[C@H]1C[C@@H](C#CC(F)(F)F)C1)C(=O)N1CCC[C@H](N1)C(=O)OCC(C)(C)C2 (atropisomer, axis not shown; (M)) [Example 12, cis-N-[(1S)-1-[[(7S,13S)-25-fluoro-(20M)-20-[2-[(1S)-1-methoxyethyl]-5-(4-methylpiperazin-1-yl)-3-pyridyl]-17,17-dimethyl-8,14-dioxo-21-(2,2,2-trifluoroethyl)-15-oxa-4-thia-9,21,27,28-tetrazapentacyclo[17.5.2.1^2,5.1^9,13.0^22,26]octacosa-1(25),2,5(28),19,22(26),23-hexaen-7-yl]carbamoyl]-2-methyl-propyl]-N-methyl-3-(3,3,3-trifluoroprop-1-ynyl)cyclobutanecarboxamide]
3 | – | 1.88 µM | – | – | – | – | 1.66 µM | – | 0.036 µM | 4.3 µM | 0.001 µM | > 10 µM | 0.005 µM | 0.02 µM | 0.007 µM | 0.003 µM | CCn1c(-c2cc(N3CCN(C)CC3)cnc2[C@H](C)OC)c2c3cc(c(F)cc31)-c1csc(n1)C[C@H](NC(=O)[C@H](C(C)C)N(C)C(=O)N1CC(C#CC(F)(F)F)C1)C(=O)N1CCC[C@H](N1)C(=O)OCC(C)(C)C2 (atropisomer, axis not shown; (M)) [Example 14, N-[(1S)-1-[[(7S,13S)-21-ethyl-24-fluoro-(20M)-20-[2-[(1S)-1-methoxyethyl]-5-(4-methylpiperazin-1-yl)-3-pyridyl]-17,17-dimethyl-8,14-dioxo-15-oxa-4-thia-9,21,27,28-tetrazapentacyclo[17.5.2.1^2,5.1^9,13.0^22,26]octacosa-1(25),2,5(28),19,22(26),23-hexaen-7-yl]carbamoyl]-2-methyl-propyl]-N-methyl-3-(3,3,3-trifluoroprop-1-ynyl)azetidine-1-carboxamide]
4 | – | > 10 µM | – | – | – | – | 0.43 µM | – | 0.219 µM | 0.142 µM | 0.123 µM | 0.781 µM | 0.063 µM | 0.509 µM | 0.041 µM | 0.006 µM | CO[C@@H](C)c1ncc(N2CCN(C)CC2)cc1-c1c2c3cc(c(F)cc3n1CC(F)(F)F)-c1csc(n1)C[C@H](NC(=O)[C@H](C(C)C)N(C)C(=O)c1ccc(C#CC(F)(F)F)cc1)C(=O)N1CCC[C@H](N1)C(=O)OCC(C)(C)C2 (atropisomer, axis not shown; (M)) [Example 4, N-[(1S)-1-[[(7S,13S)-24-fluoro-(20M)-20-[2-[(1S)-1-methoxyethyl]-5-(4-methylpiperazin-1-yl)-3-pyridyl]-17,17-dimethyl-8,14-dioxo-21-(2,2,2-trifluoroethyl)-15-oxa-4-thia-9,21,27,28-tetrazapentacyclo[17.5.2.1^2,5.1^9,13.0^22,26]octacosa-1(25),2,5(28),19,22(26),23-hexaen-7-yl]carbamoyl]-2-methyl-propyl]-N-methyl-4-(3,3,3-trifluoroprop-1-ynyl)benzamide]
